Data published in patent US20190315806A1, “POLYMYXIN DERIVATIVE, PREPARATION METHOD AND APPLICATION THEREOF” (priority 2016, published 2019).
≈ marks a conversion by molar mass, not a printed value. Where a SMILES comes first, the peptide text is derived from it. Bridges are numbered along the chain shown (N, C = ends). [ ]: non-standard residue; d: D form. The star is where a group is joined. Heptanoyl(6-Me) = CC(C)CCCCC(=O)*; X2 = CC[C@H](C)CCCCC(=O)*; Heptanoyl = CCCCCCC(=O)*; Octanoyl = CCCCCCCC(=O)*; Dab = NCC[C@H](N)C(=O)O; Nva = CCC[C@H](N)C(=O)O

Columns and labels:
Assay type in all cases: cell-based
[1] = system: Staphylococcus epidermidis ATCC 12228; conditions: ATCC 12228
Method: (§1) The minimum inhibitory concentration (MIC) was determined by means of dish double dilution method using a Multipoint inoculator according to the CLSI recommended method. The compounds of the present invention (for example, the compounds prepared in the Embodiments) and the reference substances were diluted twice each time with the broth into various desired concentrations, and appropriate amounts were added to the dishes. Agar medium is melted, and then quantitatively injected into the dish containing the drug solution, and mixed. The final concentrations of the compounds of the invention (e.g., the compounds prepared in the Embodiments) and the controls were 0.03, 0.06, 0.125, 0.25 . . . 128 μg/mL, respectively. The test bacteria were cultured overnight with nutrient broth, brain heart infusion or HTM broth. During the tests, the bacterial solutions were diluted appropriately, and the test bacteria (inoculation amount 10^4 CFU/dot) were inoculated on the surface of the drug-containing agar by a multi-point inoculator. After drying, the bacterial was incubated for 18 to 24 hours at 35° C., the results were observed, the minimum concentrations of the compounds of the present invention (for example, the compounds prepared in the Embodiments) and the controls contained in the dishes with no growth of colonies were MICs.
(§2) The strains used in the antibacterial activity experiments were from the American Type Culture Collection (ATCC) and clinical isolates.
(§3) The strains used for the experiments on antibacterial activity included Escherichia coli ATCC 25922, Klebsiella pneumoniae ATCC BAA-2146 (NDM-1), Pseudomonas aeruginosa ATCC 27853, Acinetobacter baumannii ATCC 19606 and Staphylococcus epidermidis ATCC 12228.
(§4) Tested samples: polymyxin derivatives prepared according to the technical scheme of the present invention;
(§5) Controls: polymyxin B sulfate and colistin (polymyxin E sulfate).

[2] = system: Escherichia coli ATCC 25922; conditions: ATCC 25922
Method: as §1, §2, §3, §4, §5

[3] = system: Acinetobacter baumannii ATCC 19606; conditions: ATCC 19606
Method: as §1, §2, §3, §4, §5

[4] = system: Pseudomonas aeruginosa ATCC 27853; conditions: ATCC 27853
Method: as §1, §2, §3, §4, §5

[5] = system: Klebsiella pneumoniae ATCC BAA-2146 (NDM-1); test: Antibacterial activity, MIC by dish double dilution method
Method: as §1, §2, §3, §4, §5

SMILES	MIC S. epidermidis ATCC 12228 [1]	MIC E. coli ATCC 25922 [2]	MIC A. baumannii ATCC 19606 [3]	MIC P. aeruginosa ATCC 27853 [4]	MIC K. pneumoniae ATCC BAA-2146 (NDM-1) ([5]; ATCC BAA-2146)	MIC K. pneumoniae ATCC BAA-2146 (NDM-1) ([5]; agar dilution, 10^4 CFU/dot, 18 to 24 hours at 35° C.)
CC(C)CCCCC(=O)N[C@@H](CCN)C(=O)N[C@H](C(=O)N[C@@H](CCN)C(=O)N[C@H]1CCNC(=O)[C@H]([C@@H](C)O)NC(=O)[C@H](CCN)NC(=O)[C@H](CCN)NC(=O)[C@H](CC(C)C)NC(=O)[C@@H](CC(C)C)NC(=O)[C@H](CCN)NC1=O)[C@@H](C)O [Compound 74, 6-methylheptanoyl-Dab-Thr-Dab-ring(4-10)[Dab-Dab-D-Leu-Leu-Dab-Dab-Thr]] ({Heptanoyl(6-Me)}-[Dab]T[Dab][Dab][Dab][dL]L[Dab][Dab]T; lactam 4-C)	64 mg/L (≈ 55.4 µM)	0.5 mg/L (≈ 0.433 µM)	0.5 mg/L (≈ 0.433 µM)	2 mg/L (≈ 1.73 µM)		1 mg/L (≈ 0.865 µM)
CCCCCCC(=O)N[C@@H](CCN)C(=O)N[C@H](C(=O)N[C@@H](CCN)C(=O)N[C@H]1CCNC(=O)[C@H]([C@@H](C)O)NC(=O)[C@H](CCN)NC(=O)[C@H](CCN)NC(=O)[C@H]([C@@H](C)CC)NC(=O)[C@@H](CC(C)C)NC(=O)[C@H](CCN)NC1=O)[C@@H](C)O [Compound 83, heptanoyl-Dab-Thr-Dab-ring(4-10)[Dab-Dab-D-Leu-Ile-Dab-Dab-Thr]] (Heptanoyl-[Dab]T[Dab][Dab][Dab][dL]I[Dab][Dab]T; lactam 4-C)	>128 mg/L	0.5 mg/L (≈ 0.438 µM)	1 mg/L (≈ 0.876 µM)	1 mg/L (≈ 0.876 µM)	1 mg/L (≈ 0.876 µM)	
CCCCCCCC(=O)N[C@@H](CCN)C(=O)N[C@H](C(=O)N[C@@H](CO)C(=O)N[C@H]1CCNC(=O)[C@H]([C@@H](C)O)NC(=O)[C@H](CCN)NC(=O)[C@H](CCN)NC(=O)[C@H](CC(C)C)NC(=O)[C@@H](CC(C)C)NC(=O)[C@H](CCN)NC1=O)[C@@H](C)O [Compound 98, octanoyl-Dab-Thr-Ser-ring(4-10)[Dab-Dab-D-Leu-Leu-Dab-Dab-Thr]] (Octanoyl-[Dab]TS[Dab][Dab][dL]L[Dab][Dab]T; lactam 4-C)	>128 mg/L	0.5 mg/L (≈ 0.438 µM)	0.5 mg/L (≈ 0.438 µM)	1 mg/L (≈ 0.875 µM)	1 mg/L (≈ 0.875 µM)	
CC[C@H](C)CCCCC(=O)N[C@@H](CCN)C(=O)N[C@H](C(=O)N[C@@H](CCN)C(=O)N[C@H]1CCNC(=O)[C@H]([C@@H](C)O)NC(=O)[C@H](CCN)NC(=O)[C@H](CCN)NC(=O)[C@H]([C@@H](C)O)NC(=O)[C@@H](CC(C)C)NC(=O)[C@H](CCN)NC1=O)[C@@H](C)O [Compound 102, (S)-6-methyloctanoyl-Dab-Thr-Dab-ring(4-10)[Dab-Dab-D-Leu-Thr-Dab-Dab-Thr]] (X2-[Dab]T[Dab][Dab][Dab][dL]T[Dab][Dab]T; lactam 4-C)	>128 mg/L	1 mg/L (≈ 0.864 µM)	0.5 mg/L (≈ 0.432 µM)	1 mg/L (≈ 0.864 µM)	0.25 mg/L (≈ 0.216 µM)	
CCCCCCCC(=O)N[C@@H](CCN)C(=O)N[C@H](C(=O)N[C@@H](CCN)C(=O)N[C@H]1CCNC(=O)[C@H]([C@@H](C)O)NC(=O)[C@H](CCN)NC(=O)[C@H](CCN)NC(=O)[C@H]([C@@H](C)O)NC(=O)[C@@H](CC(C)C)NC(=O)[C@H](CCN)NC1=O)[C@@H](C)O [Compound 104, octanoyl-Dab-Thr-Dab-ring(4-10)[Dab-Dab-D-Leu-Thr-Dab-Dab-Thr]] (Octanoyl-[Dab]T[Dab][Dab][Dab][dL]T[Dab][Dab]T; lactam 4-C)	64 mg/L (≈ 56 µM)	0.25 mg/L (≈ 0.219 µM)	0.5 mg/L (≈ 0.437 µM)	1 mg/L (≈ 0.875 µM)	0.5 mg/L (≈ 0.437 µM)	
CCCCCCCC(=O)N[C@@H](CCN)C(=O)N[C@H](C(=O)N[C@@H](CCN)C(=O)N[C@H]1CCNC(=O)[C@H](CO)NC(=O)[C@H](CCN)NC(=O)[C@H](CCN)NC(=O)[C@H]([C@@H](C)O)NC(=O)[C@@H](CC(C)C)NC(=O)[C@H](CCN)NC1=O)[C@@H](C)O [Compound 109, octanoyl-Dab-Thr-Dab-ring(4-10)[Dab-Dab-D-Leu-Thr-Dab-Dab-Ser]] (Octanoyl-[Dab]T[Dab][Dab][Dab][dL]T[Dab][Dab]S; lactam 4-C)	>128 mg/L	1 mg/L (≈ 0.885 µM)	16 mg/L (≈ 14.2 µM)	1 mg/L (≈ 0.885 µM)	2 mg/L (≈ 1.77 µM)	

Now from value to molecule, other results behind:

MIC S. epidermidis ATCC 12228 [1]	MIC E. coli ATCC 25922 [2]	MIC A. baumannii ATCC 19606 [3]	MIC P. aeruginosa ATCC 27853 [4]	MIC K. pneumoniae ATCC BAA-2146 (NDM-1) ([5]; ATCC BAA-2146)	SMILES	MIC K. pneumoniae ATCC BAA-2146 (NDM-1) ([5]; agar dilution, 10^4 CFU/dot, 18 to 24 hours at 35° C.)
32 mg/L (≈ 27.7 µM)	0.5 mg/L (≈ 0.433 µM)	0.5 mg/L (≈ 0.433 µM)	1 mg/L (≈ 0.865 µM)	0.5 mg/L (≈ 0.433 µM)	CCCCCCCC(=O)N[C@@H](CCN)C(=O)N[C@H](C(=O)N[C@@H](CCN)C(=O)N[C@H]1CCNC(=O)[C@H]([C@@H](C)O)NC(=O)[C@H](CCN)NC(=O)[C@H](CCN)NC(=O)[C@H](CC(C)C)NC(=O)[C@@H](CC(C)C)NC(=O)[C@H](CCN)NC1=O)[C@@H](C)O [Compound 78, octanoyl-Dab-Thr-Dab-ring(4-10)[Dab-Dab-D-Leu-Leu-Dab-Dab-Thr]] (Octanoyl-[Dab]T[Dab][Dab][Dab][dL]L[Dab][Dab]T; lactam 4-C)	
>128 mg/L	0.5 mg/L (≈ 0.433 µM)	0.5 mg/L (≈ 0.433 µM)	1 mg/L (≈ 0.865 µM)	1 mg/L (≈ 0.865 µM)	CCCCCCCC(=O)N[C@@H](CCN)C(=O)N[C@H](C(=O)N[C@@H](CCN)C(=O)N[C@H]1CCNC(=O)[C@H]([C@@H](C)O)NC(=O)[C@H](CCN)NC(=O)[C@H](CCN)NC(=O)[C@H]([C@@H](C)CC)NC(=O)[C@@H](CC(C)C)NC(=O)[C@H](CCN)NC1=O)[C@@H](C)O [Compound 79, octanoyl-Dab-Thr-Dab-ring(4-10)[Dab-Dab-D-Leu-Ile-Dab-Dab-Thr]] (Octanoyl-[Dab]T[Dab][Dab][Dab][dL]I[Dab][Dab]T; lactam 4-C)	
>128 mg/L	0.5 mg/L (≈ 0.438 µM)	1 mg/L (≈ 0.876 µM)	1 mg/L (≈ 0.876 µM)	0.5 mg/L (≈ 0.438 µM)	CCCCCCCC(=O)N[C@@H](CCN)C(=O)N[C@H](C(=O)N[C@@H](CCN)C(=O)N[C@H]1CCNC(=O)[C@H]([C@@H](C)O)NC(=O)[C@H](CCN)NC(=O)[C@H](CCN)NC(=O)[C@H](C(C)C)NC(=O)[C@@H](CC(C)C)NC(=O)[C@H](CCN)NC1=O)[C@@H](C)O [Compound 80, octanoyl-Dab-Thr-Dab-ring(4-10)[Dab-Dab-D-Leu-Val-Dab-Dab-Thr]] (Octanoyl-[Dab]T[Dab][Dab][Dab][dL]V[Dab][Dab]T; lactam 4-C)	
>128 mg/L	0.5 mg/L (≈ 0.438 µM)	1 mg/L (≈ 0.876 µM)	1 mg/L (≈ 0.876 µM)	1 mg/L (≈ 0.876 µM)	CCCCCCCC(=O)N[C@@H](CCN)C(=O)N[C@H](C(=O)N[C@@H](CCN)C(=O)N[C@H]1CCNC(=O)[C@H]([C@@H](C)O)NC(=O)[C@H](CCN)NC(=O)[C@H](CCN)NC(=O)[C@H](CCC)NC(=O)[C@@H](CC(C)C)NC(=O)[C@H](CCN)NC1=O)[C@@H](C)O [Compound 81, octanoyl-Dab-Thr-Dab-ring(4-10)[Dab-Dab-D-Leu-Nva-Dab-Dab-Thr]] (Octanoyl-[Dab]T[Dab][Dab][Dab][dL][Nva][Dab][Dab]T; lactam 4-C)	
